What all share (assay type): cell-based
Test [1] has as its system A172 cells (human brain cancer cell line). Briefly: Inhibition of cell proliferation, xCelligence cell index. To be noted: A 172, 72 hr post compound treatment, read-out: calculated IC50.
Description: For measurement of cell-substrate or cell-electrode impedance using RT-CES technology, microelectrodes having appropriate geometries are fabricated onto the bottom surfaces of microtiter plate or similar device, facing into the wells. Cells are introduced into the wells of the devices, and make contact to and attach to the electrode surfaces. The presence, absence or change of properties of cells affects the electronic and ionic passage on the electrode sensor surfaces. Measuring the impedance between or among electrodes provides important information about biological status of cells present on the sensors. When there are changes to the biological status of the cells analogue electronic readout signals are measured automatically and in real time, and are converted to digital signals for processing and for analysis. In a RT-CES system, a cell index (arbitrary representation of change in impedance) is automatically derived and provided based on measured electrode impedance values. […]
A172 cells (human brain cancer cell line) were seeded into wells of 96 well E-plate devices (Roche) with an initial seeding density of 5000 cells per well and were pre-incubated in incubator under standard cell culture condition for about 24 hours. […] The cell status was monitored prior to and after the compound addition using xCelligence system (Roche). […]
Test [2] relates to A549 cells (human lung carcinoma cell line). The experiment in a line: Inhibition of cell proliferation, RT-CES cell index. To be noted: 72 hr post compound treatment, read-out: calculated IC50. From the text: (§1) The biological activity of compounds disclosed herein was monitored and profiled using the Real-Time Cell Electronic Sensing (RT-CES®) system from ACEA Biosciences, Inc. The RT-CES system utilizes cell-substrate impedance technology to monitor cellular behavior inside tissue culture wells in a microtiter plate format. The technology features in the integration of molecular and cell biology with microelectronics and is based on the electronic detection of biological assay process. The details of this cell electronic sensing technology and associated devices, systems and methods of use are described in U.S. Pat. No. 7,167,585; U.S. Pat. No. 7,468,255; PCT publication number WO 2004/010102; U.S. Pat. No. 7,470,533; and U.S. Pat. No. 7,459,303, each of which is incorporated herein by reference. Additional details of RT-CES technology are further disclosed in U.S. Pat. No. 7,468,255.
(§2) For measurement of cell-substrate or cell-electrode impedance using RT-CES technology, microelectrodes having appropriate geometries are fabricated onto the bottom surfaces of microtiter plate or similar device, facing into the wells. […] When there are changes to the biological status of the cells analogue electronic readout signals are measured automatically and in real time, and are converted to digital signals for processing and for analysis. In a RT-CES system, a cell index (arbitrary representation of change in impedance) is automatically derived and provided based on measured electrode impedance values. […]
(§3) To quantify cell status based on the measured cell-electrode impedance, a parameter termed Cell Index is derived. Cell Index is a quantitative measure of the status of the cells in an electrode-containing well. […]
A549 cells (human lung carcinoma cell line) were seeded into wells of 96 well E-plate devices (Roche) with an initial seeding density of 5000 cells per well and were pre-incubated in incubator under standard cell culture condition for about 24 hours. […] The cell status was monitored prior to and after the compound addition using RT-CES system (ACEA Biosciences). […]

The subject of test [3] is SW1088 cells (human brain cancer cell line). Briefly: Inhibition of cell proliferation, xCelligence cell index. The conditions noted are these: 72 hr post compound treatment, read-out: calculated IC50.
In test [4] the test system is H292 cells (human pulmonary lung carcinoma cell line). The description is as above. To be noted: NCI-H292, 72 hr post compound treatment, read-out: calculated IC50.
Description: as §1, §2, §3
H292 cells (human pulmonary lung carcinoma cell line) were seeded into wells of 96 well E-plate devices (Roche) with an initial seeding density of 5000 cells per well and were pre-incubated in incubator under standard cell culture condition for about 24 hours. […] The cell status was monitored prior to and after the compound addition using xCelligence system (Roche). […]

The test system of test [5] is B×PC3 cells (human pancreatic cancer cell line). Described as above. The conditions noted are these: 72 hr post compound treatment, read-out: calculated IC50.
Description: as §1, §2, §3
B×PC3 cells (human pancreatic cancer cell line) were seeded into wells of 96 well E-plate devices (Roche) with an initial seeding density of 5000 cells per well and were pre-incubated in incubator under standard cell culture condition for about 24 hours. […] The cell status was monitored prior to and after the compound addition using xCelligence system (Roche). […]

Test [6] relates to U118MG cells (human brain cancer cell line). The test is described as above. The conditions noted are these: U-118-MG, 72 hr post compound treatment, read-out: calculated IC50.
The test system of test [7] is NCI-H460 cells (human large cell lung carcinoma cell line). The test is described as above. To be noted: 72 hr post compound treatment, read-out: calculated IC50.
Description: as §1, §2, §3
NCI-H460 cells (human large cell lung carcinoma cell line) were seeded into wells of 96 well E-plate devices (Roche) with an initial seeding density of 5000 cells per well and were pre-incubated in incubator under standard cell culture condition for about 24 hours. […] The cell status was monitored prior to and after the compound addition using xCelligence system (Roche). […]

The test system of test [8] is H1993 cells (human non-small cell lung cancer cell line). Described as above. The conditions noted are these: NCI-H1993, 72 hr post compound treatment, read-out: calculated IC50.
Test [9] relates to HT29 cells (human colon cancer cell line). Described as above. The conditions noted are these: HT-29, 72 hr post compound treatment, read-out: calculated IC50.
Description: as §1, §2, §3
HT29 cells (human colon cancer cell line) were seeded into wells of 96 well E-plate devices (Roche) with an initial seeding density of 5000 cells per well and were pre-incubated in incubator under standard cell culture condition for about 24 hours. […] The cell status was monitored prior to and after the compound addition using xCelligence system (Roche). […]

The IC50 is the point on the concentration scale where inhibition reaches its midpoint.

Structures are written as SMILES. Structures can show the parent of a compound that is named as a salt.

Regarding `CCc1ccc(Nc2nc(-c3c(C)nc4sccn34)cs2)cc1` [COMPOUND O, 2-(4-ethylphenyl)amino-4-(6-methylimidazo[2,1-b]thiazol-5-yl)-thiazole monohydrobromide], the IC50 was 11.6 nM in test [1]; 10.9 nM in test [2]; 21.2 nM in test [3]; 10.8 nM in [4]; 6.6 nM in test [5]; 13.1 nM in test [6]. Also, the IC50 in test [7] is 10.9 nM; in test [8] it was 60.2 nM; in test [9], 25.4 nM.
Consider `CC(=O)O[C@H]1C(=O)[C@@]2(C)[C@H]([C@H](OC(=O)c3ccccc3)[C@]3(O)C[C@H](OC(=O)[C@H](O)[C@@H](NC(=O)c4ccccc4)c4ccccc4)C(C)=C1C3(C)C)[C@]1(OC(C)=O)CO[C@@H]1C[C@@H]2O` [paclitaxel], for which the IC50 was 4.46 nM in test [1]; 5.3 nM in test [2]; 13.1 nM in test [3]; 2.59 nM in test [4]; 8.86 nM in test [5]; 12.3 nM in test [6]. Moreover, the IC50 in [7] was 2.68 nM; in [8], 5.12 nM; in test [9], 2.52 nM.
With `CC[C@]1(O)C[C@H]2CN(CCc3c([nH]c4ccccc34)[C@@](C(=O)OC)(c3cc4c(cc3OC)N(C=O)[C@H]3[C@@](O)(C(=O)OC)[C@H](OC(C)=O)[C@]5(CC)C=CCN6CC[C@]43[C@@H]65)C2)C1` [vincristine], the IC50 is 1.3 nM in test [1]; 61.8 nM in test [2]; 4.96 nM in test [3]; 2.63 nM in test [4]; 4.06 nM in [5]; 4.31 nM in [6]. For the same compound, the IC50 was 10.4 nM in test [7], 2.43 nM in test [8] and 12.7 nM in test [9].
